Measured values reported in US20060194947A1, “Peptide gap junction modulators” (priority 2002, published 2006).
Read-outs that look alike come from different tables or passages of the source. Where a SMILES comes first, the peptide text is derived from it. [ ]: non-standard residue; d: D form. The star is where a group is joined. Bz = O=C(c1ccccc1)*

Key:
[1] = tested on: Human primary osteoblasts; experiment: Osteoblast activity (ALP assay); type: cell-based; details: cell lysate, stimulated 1×10^−13 to 1×10^−6 for the last 4 days, compared to vehicle treated control cultures
Method: Cells also can be measured for the presence of alkaline phosphatase activity to provide a general measure of osteoblast activity. In one aspect, cells are plated in 96-well plates at a concentration of 8000 cells/well (hOB) or 3000 cells/well (ROS) in 200 μl normal culture medium. On day 4 (or day 3 for ROS cells), cells are washed with 200 μl MEM, 0.1% BSA (Sigma, Cat.No. A-9418). Samples comprising a suitable medium (e.g., 200 μl MEM, 0.1% BSA) containing various concentrations of peptides, control, AAP or AAP10 are added to the cells, and culture is continued for about 4 days (2 days for ROS cells).
On about day 8 (preferably day 5 for ROS cells), cells are assayed for alkaline phosphatase using an Alkaline Phosphatase (ALP) assay such as is known in the art. ALP assays are generally colorimetric endpoint methods for measuring enzyme activity, and can be performed using an Alkaline Phosphatase Kit (Sigma, Cat.No. 104-LL). Preferably, cells are washed once with 200 μl PBS+Ca, Mg, 100 μl Alkaline Buffer Solution is added to each well and the cells are incubated at 37° C. for 10 minutes. 100 μl Substrate Solution is subsequently added to each well and the plate is incubated at 37° C. for 30 min. 100 μl 2.0 N NaOH is added to each well to stop the reaction. Absorbance is measured using a plate reader at 405 nm.
Human primary osteoblasts were obtained from bone marrow biopsies of the posterior iliac spine from voluntary donors. Cells were used at 6 weeks of culturing. Cells were cultured in 24-well plates in an 8 days process and stimulated with the test compounds in concentrations from 1×10^−13 to 1×10^−6 for the last 4 days of the experiment. Cell lysate was collected for determination of ALP activity. hOB cells from 10-15 donors were used for the experiments. For ALP measurements a commercially available kit (Alkaline Phosphatase Kit, Sigma-Aldrich Denmark A/S) was used. All determinations were performed according to the manufacturer's recommendations.
ALP was determined on cell lysate collected at termination of the experiment. Measurements were compared with and to vehicle treated control cultures.
Data are presented as means and standard deviations or medians and percentiles as appropriate. Two-way ANOVA is performed using Fisher's LSD test for post-hoc comparisons, using a 0.05 level of significance.

[2] = tested on: calcium-induced arrhythmias (2nd degree AV block); experiment: Standard calcium-induced arrhythmia assay; type: in vivo, Male NMRI mice; details: mice, i.v. 3 min before CaCl2 infusion; (tarr(testcompound)−tarr(vehicle))×100/tarr(vehicle)
Method: Peptides suitable for administration to cardiac cells can be identified in an in vivo model of calcium-induced arrhythmias according to the model of Lynch et al. (1981) J Cardiovasc. Pharmacol. 3: 49-60. Mice (25-30 g) are anaesthetized with a neurolept anaesthetic combination and an i.v. cannula is inserted into the tail vein. A lead II ECG signal is recorded continuously by positioning a stainless steel ECG electrodes on the right forelimb and on the left hind limb. The ground electrode is placed on the right hind limb. The signal is amplified (×5.000-10.000) and filtered (0.1-150 Hz) via a Hugo Sachs Electronic model 689 ECG module. The analog signal is digitized via a 12 bit data acquisition board (Data Translation model DT321) and sampled at 1000 Hz using the Notocord HEM 3.1 software for Windows NT. After a 10-minute equilibration period, the test sample of peptide is injected into the tail vein. Mice pre-treated with buffer are tested as a measure of the control level in untreated animals. The injection volume is 100 μl in all experiments.
Infusion of CaCl2 (30 mg/ml, 0.1 ml/min≈100 mg/kg/min (calcium chloride-2-hydrate, Riedel-de Haën, Germany)) is started 3 min after i.v. administration of drug or vehicle. The time lag to onset of 2nd degree AV-block is determined as the time from the start of CaCl2 infusion until the first arrhythmic event occurs. An event of 2nd degree AV-block is defined as intermittent failure of the AV conduction characterised by a P-wave without the concomitant QRS complex.
Responses are expressed relative to the time until 2nd degree AV-block occurred in vehicle treated mice. The maximal effect of compounds (e.g., peptides, AAP, AAP10 or controls) is determined. […] Preferably, […], the peptides provide at least about 40% of the activity of AAP, for example at least about 50% of the activity of AAP, such as about 60% of the activity of AAP, for example at least about 70% of the activity of AAP, such as at least about 80% of the activity of AAP, for example at least about 90% of the activity of AAP, for example at least about substantially the same activity of AAP, such as about 110% of the activity of AAP, for example at least about 120% of the activity of AAP, such as at least about 130% of the activity of AAP, for example at least about 140% of the activity of AAP, such as about 150% of the activity of AAP, for example at least about 160% of the activity of AAP, such as at least about 170% of the activity of AAP, for example at least about 180% of the activity of AAP, preferably at least about 190% of the activity of AAP, more preferably at least about 200 or greater % of the activity of AAP (i.e., the peptides show time lags of approximately the same duration as induced by AAP).
The anti-arrhythmic effect of the dipeptides was determined in a model of calcium-induced arrhythmias according to the model of Lynch et al.. Male NMRI mice (25-30 g; Bomholdtgaard, LI. Skendsved, Denmark) were anaesthetised with a neurolept anaesthetic combination (Hypnorm® (fentanyl citrate 0.315 mg/ml and fuanisone 10 mg/ml)+midazolam (5 mg/ml)). Commercial solutions of Hypnorm® and midazolam were diluted 1:1 in distilled water, and one part diluted Hypnorm® was mixed with one part diluted midazolam. Anaesthesia was induced by s.c. administration of this solution in a dose of 50-75 μl/10 gram mouse.
An i.v. cannula was inserted into the tail vein. The lead II ECG signal was recorded continuously by positioning of stainless steel ECG electrodes on the right forelimb and on the left hind limb. The ground electrode was placed on the right hind limb. The signal was amplified (×5.000-10.000) and filtered (0.1-150 Hz) via a Hugo Sachs Electronic model 689 ECG module. The analogue signal was digitised via a 12-bit data acquisition board (Data Translation model DT321) and sampled at 1000 Hz using the Notocord HEM 3.1 software for Windows NT. […]

[3] = Oral bioavailability, pharmacokinetic screening (i.v./p.o. cross-over, LC/MS/MS); type: in vivo; details: male, rat, plasma, Sprague-Dawley rats
Excerpt: The water used for these experiments was of highest quality obtained from a reversed osmosis primary system in combination with a Milli-Q water secondary treatment system (Millipore, Bedford, Mass., USA). Methanol was super gradient quality obtained from Labscan Ltd. (Dublin, Ireland). Formic acid p.a. (98-100%) was obtained from Merck (Darmstadt, Germany). Heptafluorobuturicacid, HPLC grade wAs obtained from Pierce (Rockford, Ill., USA). EDTA stabilised plasma from rat (Sprague-Dawley) was obtained from Harlan Sera Lab Ltd. (Loughborough, UK). Blood samples were collected in potassium EDTA coated microtainers from BD Vacutainer Systems (Plymouth, UK). Sample preparation by ultra filtration was performed using Microcon centrifugal filter devices with a molecular weight cut off of 3000 obtained from Millipore (Bedford, Mass., USA).
The LC/MS/MS analysis was performed on a Waters Alliance 2790 HPLC instrument in combination with a Quattro Ultima mass spectrometer from Micromass (Manchester, UK). Both the LC and MS were controlled by MassLynx 3.5 software. The LC separations prior to MS/MS detection were performed on an XTerra MS C18 (2.0×50 mm), 3.5 μm particles, (Waters, Milford, Mass., USA).
Twelve male Sprague-Dawley rats (approx 350 g) were obtained from M&B (Denmark) and catheters were inserted into the femoral vein and artery during Hypnorm®-Dormicum® anaesthesia. After surgery, the rats were allowed to recover for five days before drug administration was initiated.
The dipeptides (Compound 22, Compound 21, Compound 23, Compound 96, Compound 95 and Compound 54) were obtained as the TFA salts and dissolved in PBS (2.6 mM KCl, 137 mM NaCl, 1.5 mM KH2PO4 and 8.2 mM Na2HPO4 adjusted to pH=7.4) to give concentrations of 500 μM. The dosing volumes were 1 mL/kg corresponding to doses of 500 nmol/kg, respectively. After each experiment the dosing solutions were diluted in 0.5% formic acid in water and analysed by LC/MS/MS for their content of drug substance. The concentrations of drug substance in the dosing solutions were calculated from the responses of standards in the range from 1 to 1000 nM.
The drug substances were administered to two animals as i.v. and p.o. bolus in a cross-over study design. The p.o. dose was administered to rats fasted for a 17 hours period prior to drug administration. The animals were allowed to rest for 48 hours in between drug administrations. After the first experiment the rats received a blood transfusion with heparin treated blood.
Prior to drug administration (5 min) the rats received 500 IU heparin as an i.v. bolus and a control blood sample was collected. After drug administration blood samples of approx. 250 μL were collected from the femoral artery at the following time points; before dose (B.D.), 5, 15, 30, 60, 120, 180 and 240 min after i.v. administration and at B.D., 10, 30, 50, 80, 120, 180, 240, and 300 min after p.o. administration. The blood samples were stored on ice until centrifugation for 5 min at 10.000×g (4° C.) and the plasma (100 μL) were transferred to 1.5 mL polypropylene tubes and stored at −20° C. until sample preparation and LC/MS/MS analysis.
The plasma samples were thawed on ice, and 100 μL plasma was mixed with 100 μL 1% (v/v) formic acid and transferred to microcon YM-3 filter units. The samples were then centrifuged for 1 hr at 8.300×g at room temperature. The filtrates were collected in 300 μL autosampler vials and stored at 4° C. until injection (40 μL) onto the LC column. The chromatography was performed at 50° C. using a linear gradient from 100% buffer A (0.1% formic acid in water) to 100% buffer B (0.1% formic acid in acetonitrile) in 4 min, followed by 3 min wash using buffer B and finally a reequilibration period for 7 min using buffer A. The detection of the drug substances were performed by MS/MS using argon as collision gas (1.3×10^−3 mbar). […]

[4] = oral, TFA salts in PBS, 500 nmol/kg i.v. and p.o. bolus, p.o. fasted 17 hours, dose normalised AUCpo/AUCiv, read-out: F (%) Mean (mean bioavailability)
[5] = oral administration 500 nmol/kg, read-out: bioavailability

bioavailability [3, 4] | bioavailability [3, 5] | Compound | ALP activity relative to vehicle control (ratio) [1] | % response (time lag to onset of 2nd degree AV block relative to vehicle) [2]
31% | 10 to 31% | N[C@H](CCCCNC(=O)c1ccc([N+](=O)[O-])cc1)C(=O)NCC(=O)O [Compound 22, H-D-Lys(4-nitrobenzoyl)-Gly-OH] | 1.12 | 52.0%
 |  | H-Lys(4-nitrobenzoyl)-Gly-OH [Compound 7] |  | 40%
 |  | H-Gly-Lys(4-cyanobenzoyl)-OH [Compound 3] |  | 37.0%
15% | 10 to 31% | C[C@H](NC(=O)[C@H](N)CC(=O)NCc1ccc([N+](=O)[O-])cc1)C(=O)O [Compound 96, H-D-Asn(NH(4-nitrobenzyl))-Ala-OH] |  | 54%
 |  | H-Gly-Lys(4-nitrobenzoyl)-OH [Compound 1] | 1.08 | 52.0%
 |  | H-Gly-Lys(4-methoxybenzoyl)-OH [Compound 4] |  | 69.0%
2.6% | 2 to 8% | COc1ccc(C(=O)NCCCC[C@@H](N)C(=O)NCC(=O)O)cc1 [Compound 21, H-D-Lys(4-methoxybenzoyl)-Gly-OH] |  | 55.0%
29% | 10 to 31% | COc1ccc(CNC(=O)C[C@@H](N)C(=O)N[C@@H](C)C(=O)O)cc1 [Compound 95, H-D-Asn(NH(4-methoxybenzyl))-Ala-OH] | 1.14 | 0.3%
 |  | H-Asn(NH(4-methoxybenzyl))-D-Ala-OH [Compound 80] |  | 33%
7.2% | 2 to 8% | CC(C)(C)c1ccc(C(=O)NCCCC[C@@H](N)C(=O)NCC(=O)O)cc1 [Compound 54, H-D-Lys(4-t-butylbenzoyl)-Gly-OH] |  | 61.3%

Compound | bioavailability [3, 4] | bioavailability [3, 5] | ALP activity relative to vehicle control (ratio) [1] | % response (time lag to onset of 2nd degree AV block relative to vehicle) [2]
N[C@H](CCCCNC(=O)c1ccccc1)C(=O)NCC(=O)O [Compound 23, H-D-Lys(benzoyl)-Gly-OH] (H-[dK](Bz)-Gly-OH) | 10% | 10 to 31% | 1.08 | −8.0%
